Measured values published in patent publication US20060122181A1, “Heteroaromatic pentacyclic compound and medicinal use thereof” (Japan Tobacco Inc., priority 2003, published 2006).

Columns and labels:
[1] = biological target: T1, Recombinant human protein tyrosine phosphatase 1B (Homo sapiens, UniProt P18031); assay: Protein tyrosine phosphatase 1B inhibitory activity (malachite green, phosphorylated insulin receptor peptide substrate); type: biochemical; conditions: recombinant human PTP1B, 60 min room temperature, absorbance 650 nm
T1 construct: purchased UBI
T1 sequence (P18031 1-435): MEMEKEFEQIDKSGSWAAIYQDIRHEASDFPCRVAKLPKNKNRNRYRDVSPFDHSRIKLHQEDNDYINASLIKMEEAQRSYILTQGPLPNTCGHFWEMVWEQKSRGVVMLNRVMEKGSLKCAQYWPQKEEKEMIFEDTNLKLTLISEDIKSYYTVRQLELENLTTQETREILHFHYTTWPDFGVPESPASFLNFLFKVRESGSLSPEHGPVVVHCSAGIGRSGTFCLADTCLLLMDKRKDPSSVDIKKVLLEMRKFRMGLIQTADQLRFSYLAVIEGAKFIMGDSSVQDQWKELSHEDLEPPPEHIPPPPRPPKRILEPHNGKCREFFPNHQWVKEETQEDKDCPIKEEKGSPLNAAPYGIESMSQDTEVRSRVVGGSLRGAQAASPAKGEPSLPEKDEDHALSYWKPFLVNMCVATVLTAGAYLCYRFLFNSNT
Procedure: Preparation of Assay Buffer:
A 50 mM Tris-HCl buffer (pH 7.5), 50 mM NaCl and 3 mM dithiothreitol (DTT) were prepared.
[…] 0.1, 0.3, 1, 3 and 10 μM of the test compound were prepared and diluted with the above-mentioned assay buffer to the final dimethyl sulfoxide (DMSO) concentration of not more than 1%. As the control, the assay buffer was used.
Preparation of Substrate:
Recombinant human protein tyrosine phosphatase 1B (manufactured by UBI) was diluted with the above-mentioned assay buffer (1.2 ng/25 μl).
The sample (10 μl) prepared as mentioned above and a substrate (25 μl) were successively added to a 96 well plate, and the enzyme (25 μl) prepared as mentioned above was added and mixed. The mixture was incubated at room temperature for 60 min and a malachite green (120 μl, Biomol), which is a color reagent, was added. The mixture was further incubated at room temperature for 20 min to allow for color development. An absorbance at 650 nm was measured on a plate reader based on which the protein tyrosine phosphatase 1B inhibitory activity of the test compound was evaluated.

IC50 [1] [µM] | melting point [°C] | Compound
0.31 | 124 to 128 | CCCC(CCC)c1ccc(Cn2cc(-c3csc(CN4CCc5ccc(C(=O)O)cc5C4)n3)c3ccccc32)cc1 [Example 1-166]
< 0.1 | 92.6 to 94.7 | CCCC(CCC)c1ccc(OCc2ccc(-c3ccc(CN(CC(=O)O)Cc4cc(C(F)(F)F)ccc4Cl)s3)cc2)cc1 [Example 4-75]
0.17 | 109 to 111 | CCCC(CCC)c1ccc(OCc2ccc(-c3csc(CN(CC(=O)O)C(=O)c4ccc(C(C)C)cc4)c3)cc2)cc1 [Example 4-70]
0.087 | – | CCCC(CCC)c1ccc(OCc2ccc(-c3ccc(CN(CC(=O)O)Cc4nc(C(C)(C)C)cs4)s3)cc2)cc1 [Example 4-35]
0.16 | – | CCCC(CCC)c1ccc(OCc2ccc(-c3ccc(C(=O)N(CC(=O)O)Cc4ncc(C(C)(C)C)s4)s3)cc2)cc1 [Example 4-43]
0.15 | – | CCCC(CCC)c1ccc(OCc2ccc(-c3ccc(C(=O)N4CCN(c5ccc(C(=O)O)cc5)CC4)s3)cc2)cc1 [Example 4-52]
< 0.1 | 104.4 to 107.2 | CCCC(CCC)c1ccc(OCc2ccc(-c3ccc(CN(CC(=O)O)c4nc5ccccc5s4)s3)cc2)cc1 [Example 4-99]
0.24 | 139 to 140.2 | CCCC(CCC)c1ccc(OCc2ccc(-c3csc(CN(CC(=O)O)S(=O)(=O)N(C)c4ccccc4)c3)cc2)cc1 [Example 4-64]
0.14 | – | CCCC(CCC)c1ccc(OCc2ccc(-c3csc(CN(C)S(=O)(=O)c4ccc(C(=O)O)cc4)n3)cc2)cc1 [Example 1-50]
0.2 | – | CCCC(CCC)c1ccc(OCc2ccc(-c3csc(COc4cc(C(=O)O)ccc4NC(=O)CN(C)C)c3)cc2)cc1 [Example 4-56]
0.15 | – | CCCC(CCC)c1ccc(OCc2ccc(-c3ccc(CN(CC(=O)O)Cc4nc5ccccc5n4C)s3)cc2)cc1 [Example 4-1]
0.073 | – | CN(Cc1ccc(C2CCC(C)(C)CC2)cc1)c1ccc(-c2csc(CN(CC(=O)O)Cc3ccccc3)n2)cc1 [Example 3-35]
< 0.1 | – | CCCC(CCC)c1ccc(OCc2ccc(-c3ccc(CN(CC(=O)O)C(c4ccccc4)c4ccccc4)s3)cc2)cc1 [Example 4-81]
0.24 | – | CN(Cc1ccc(C(=O)O)cc1)c1nc(-c2ccc(C(=O)Nc3ccc(C4CCCCC4)cc3)cc2)cs1 [Example 1-53]
0.17 | – | CCCC(CCC)c1ccc(OCc2ccc(-c3csc(CN(CC(=O)O)Cc4nc5ccccc5n4C)c3)cc2)cc1 [Example 4-30]
0.18 | – | CCCC(CCC)c1ccc(OCc2ccc(-c3csc(COc4cc(C(=O)O)ccc4N(C)S(C)(=O)=O)c3)cc2)cc1 [Example 4-59]
– | 124 | CCC(CC)c1ccc(N(Cc2ccc(-c3csc(CN(C)c4ccc(OCC(=O)O)c(C(=O)O)c4)n3)cc2)C(C)C)cc1 [Example 1-124]
– | 69 to 72 | CN(Cc1ccccc1)c1ccc(-c2csc(CN(CC(=O)O)Cc3ccc(Cl)c(Cl)c3)n2)cc1 [Example 3-51]
– | 183 to 188 | CCCC(CCC)c1ccc(CN(C)c2ccc(-c3csc(CN(CC(=O)[O-])C(=O)c4ccc(C(C)C)cc4)n3)cc2)cc1.[Na+] [Example 3-63]
– | 149 to 150 | CN(Cc1nc(-c2ccc(N(C)Cc3ccc(C4CCCCC4)cc3)cc2)cs1)C(=O)NCC(=O)O [Example 3-109]
– | 160 | CCC(CC)c1ccc(N(Cc2ccc(-c3csc(COc4cncc(C(=O)O)c4)c3)cc2)C(C)C)cc1 [Example 4-4]
– | 120.5 | CCCC(CCC)c1ccc(OCc2ccc(-c3csc(CN(CC(=O)O)Cc4ncc(C(C)(C)C)o4)c3)cc2)cc1 [Example 4-29]
– | 77 to 82 | CCCC(CCC)c1ccc(OCc2ccc(-c3csc(CN4Cc5ccccc5C[C@@H]4C(=O)O)n3)cc2)cc1 [Example 1-47]

IC50 [1] [µM] | melting point [°C] | Compound
0.29 | – | CCCC(CCC)c1ccc(OCc2ccc(-c3csc(CN(CC(=O)O)C(=O)N(C)c4ccccc4)c3)cc2)cc1 [Example 4-72]
– | 160 to 161 | CN(Cc1ccc(CC(C)(C)C)cc1)c1ccc(-c2csc(CN(C)C(Cc3ccccc3)C(=O)O)n2)cc1 (centres unmarked) [Example 3-89]
– | 128.5 to 131.5 | CC(C)c1ccc(Cn2c(-c3csc(CN4CCN(c5cccc(C(=O)O)c5)CC4)n3)nc3ccc(N4CCOCC4)cc32)cc1 [Example 1-186]
– | 127 to 130 | CCCC(CCC)c1ccc(COc2ccc(-c3csc(CN4Cc5ccccc5CC4C(=O)O)n3)cc2)cc1 (centres unmarked) [Example 3-118]
– | 152 to 153 | CN(Cc1ccc(CC(C)(C)C)cc1)c1ccc(-c2csc(CN(CC(=O)O)C(=O)Nc3ccccc3)n2)cc1 [Example 3-60]
– | 176 to 180 | CN(Cc1ccc(C2CCCCC2)cc1)c1ccc(-c2csc(CN3CCCC(C(=O)O)C3)n2)cc1 (centres unmarked) [Example 3-66]
– | 65 to 71 | CCCC(CCC)c1ccc(CN(C)C(=O)c2ccc(-c3csc(CN(CC(=O)O)Cc4ccccc4)n3)cc2)cc1 [Example 1-56]
– | 176 to 183 | CCC(CC)c1ccc2c(c1)nc(-c1csc(COc3ccc(C(=O)O)cc3)n1)n2CC1CCCCC1 [Example 3-132]
– | 201 to 202 | CCCC(CCC)c1ccc(NC(=O)c2ccc(-c3csc(CN(CC(=O)O)Cc4ccccc4)n3)cc2)cc1 [Example 1-54]
– | 202.3 to 204.2 | O=C(O)CN(Cc1ccccc1)Cc1cc(-c2ccc(COc3cc(Cl)cc(Cl)c3)cc2)cs1 [Example 4-105]
– | 158 to 161 | CN(Cc1ccc(C2CCCCC2)cc1)c1ccc(-c2csc(N(C)Cc3ccc(C(=O)O)o3)n2)cc1 [Example 3-75]
– | 111 to 113 | CCC(CC)c1ccc(N(Cc2ccc(-c3csc(COc4cncc(C(=O)OC)c4)n3)cc2)C(C)C)cc1 [Example 1-89]
– | 140 to 142 | CN(Cc1ccccc1)c1ccc(-c2csc(CN(CC(=O)O)Cc3ccc(Cl)cc3)n2)cc1 [Example 3-49]
– | 143 to 145 | CC(C)Cc1ccc(CN(C)c2ccc(-c3csc(CN(CC(=O)O)C(=O)c4ccccc4)n3)cc2)cc1 [Example 3-61]
– | 130 to 131 | CCCC(CCC)c1ccc(COc2ccc(Cl)cc2-c2csc(CN(CC(=O)O)Cc3ccccc3)n2)cc1 [Example 3-13]
– | 202.8 to 206.4 | CCCC(CCC)c1ccc(OCc2ccc(-c3ccc(CN(CC(=O)O)Cc4cccc(C(=O)O)c4)s3)cc2)cc1 [Example 4-76]
– | 133.1 to 136.5 | CCCC(CCC)c1ccc(OCc2ccc(-c3ccc(CN(CC(=O)O)S(C)(=O)=O)s3)cc2)cc1 [Example 4-49]
– | 115.5 | CCCC(CCC)c1ccc(OCc2ccc(-c3csc(CN(CC(=O)O)CC(=O)N(c4ccccc4)C(C)C)n3)cc2)cc1 [Example 1-99]
– | 177 to 181 | CCC(CC)c1ccc(N(Cc2ccc(-c3csc(COc4ccc(C(=O)O)cn4)n3)cc2)C(C)C)cc1 [Example 1-3]
– | 122 to 124 | CCCC(CCC)c1ccc(N(C)Cc2ccc(-c3csc(CSc4ccc(C(=O)O)cc4)n3)cc2)cc1 [Example 1-14]
– | 155 to 156 | CC(C)CCN(CC(=O)O)Cc1nc(-c2ccc(N(C)Cc3ccc(CC(C)C)cc3)cc2)cs1 [Example 3-93]
– | 176.5 | CCCC(CCC)c1ccc(OCc2ccc(-c3csc(CN(CC(=O)O)CC(=O)Nc4ccc(OC)cc4)n3)cc2)cc1 [Example 1-98]
